Test results taken from US20230330093A1, “APPLICATION OF NITROGEN-CONTAINING SATURATED HETEROCYCLIC COMPOUND” (SHANGHAI PHARMACEUTICALS HOLDING CO., LTD., priority 2020, published 2023).

Legend:
[1] = test system: cynomolgus monkeys; assay: 4-week safety study: hematology and coagulation; format: in vivo
Method: […] (1) Hematological and coagulation index examination were performed using a Bayer ADVIA2120 (Germany) and a Sysmex CA-1500 (Japan). (2) The serum biochemical examination was assessed using a HITACHI 7080 automated analyzer (Japan) and an Easylyte PLUS electrolyte analyzer (MEDICA, America). (3) The 24-h pooled urine of each animal was collected by a tray under each cage. Urinalysis was carried out using Uritest-300 (China). (4) The 24-h pooled faeces of each monkey were collected by a tray under each cage. Fecal occult blood was detected. (5) ACCESS 2 Chemiluminescence immunoassay was used for myocardial troponin (TropI, non-GLP) test.

[2] = test system: cynomolgus monkeys; assay: 4-week repeated-dose safety study: clinical observations, mortality, body weight; format: in vivo; details: for body weight gain: no statistical significance
Method: The compound of Formula I was prepared and confirmed according to the method in CN103562191B. The 0.5% of sodium carboxymethyl cellulose (CMC-Na) was used as a vehicle. The compound of Formula I was stored at room temperature, protected from light and wetness. For cynomolgus monkey safety studies, the test substance was suspended in 0.5% CMC-Na at the relevant concentrations. The homogeneity, concentration and one week stability of prepared suspension was analyzed to ensure proper administration of the reported doses. The six month accelerated stability of active pharmaceutical ingredient (API) was tested by the inventor.
Healthy male and female cynomolgus monkeys aged 3-4 years were supplied by Hainan New Source Biotech Co. Ltd. (Hainan, China). The body weight range at the start of treatment was 3.2-5.8 kg for male and 2.5-3.7 kg for female. They were housed for a 36-day acclimation period before study. Once a day in the morning, animals eat and drink freely.
Mortality and clinical signs were evaluated daily from the beginning of the quarantine period. Each animal was examined at least twice daily for any change in behavior, reaction to treatment or illness after administration.
Observations included, but were not limited to the following: changes in skin and fur; eyes and mucous membranes; respiratory, circulatory, autonomic, central nervous systems and behavior patterns. Rectal temperature was measured before administration (twice), at 1 and 24 h after first administration, and before d26 administration and at 1 and 24 h after d26 administration. Body weight was measured every week. Food consumption was estimated for monkey every day. Ophthalmoscopy was conducted for the monkey study using a portable slit lamp (YZ2) and a direct ophthalmoscope (GFJY-01B).

[3] = all treated females and high-dose males

## COC(=O)NCCCn1nc([C@@H](C)N(C(=O)[C@H]2CNCCO2)C2CC2)c2ccc(C)nc21 [compound of Formula I]
[1]; Male, 20 mg/kg, d0
  WBC: 13.4 ± 2.5 ×10^9 · L^−1
[1]; Male, 20 mg/kg, d14
  APTT: 17.8 ± 2.7 s
  Fbg: 3.2 ± 0.8 g/L
  LYMPH: 51.1 ± 19.6%
  NEUT: 43.1 ± 20.4%
  WBC: 17.7 ± 9.3 ×10^9 · L^−1
[1]; Male, 20 mg/kg, d26
  APTT: 19.5 ± 2.4 s
  Fbg: 2.2 ± 0.4 g/L
  LYMPH: 59.5 ± 11.9%
  NEUT: 35.1 ± 12.4%
  WBC: 13.8 ± 6.5 ×10^9 · L^−1
[1]; Male, 20 mg/kg, d 56
  APTT: 21.3 ± 4.0 s
  Fbg: 3.1 ± 1.4 g/L
  LYMPH: 53.3 ± 14.3%
  NEUT: 38.5 ± 12.6%
  WBC: 20.1 ± 4.2 ×10^9 · L^−1
[1]; Male, 100 mg/kg, d0
  APTT: 16.6 ± 1.8 s
  Fbg: 2.2 ± 0.3 g/L
  LYMPH: 61.5 ± 16.2%
  NEUT: 32.6 ± 18.2%
  WBC: 12.6 ± 2.3 ×10^9 · L^−1
[1]; Male, 100 mg/kg, d14
  APTT: 15.5 ± 0.5 s
  Fbg: 2.8 ± 0.7 g/L
  LYMPH: 48.0 ± 12.2%
  NEUT: 45.2 ± 12.2%
  WBC: 15.6 ± 6.6 ×10^9 · L^−1
[1]; Male, 100 mg/kg, d26
  APTT: 22.5 ± 2.5 s
  Fbg: 4.1 ± 1.2 g/L
  LYMPH: 32.1 ± 9.4%
  NEUT: 60.8 ± 10.5%
  WBC: 20.3 ± 2.9 ×10^9 · L^−1
[1]; Male, 100 mg/kg, d 56
  APTT: 17.7 ± 1.0 s
  Fbg: 1.7 ± 0.3 g/L
  LYMPH: 52.7 ± 9.0%
  NEUT: 42.5 ± 11.2%
  WBC: 14.1 ± 0.2 ×10^9 · L^−1
[1]; Male, 450 mg/kg, d0
  APTT: 17.0 ± 2.1 s
  Fbg: 2.2 ± 0.7 g/L
  LYMPH: 48.6 ± 16.8%
  NEUT: 46.9 ± 17.3%
  WBC: 12.0 ± 3.8 ×10^9 · L^−1
[1]; Male, 450 mg/kg, d14
  APTT: 16.1 ± 0.8 s
  Fbg: 3.1 ± 1.0 g/L
  LYMPH: 35.6 ± 15.5%
  NEUT: 59.2 ± 16.0%
  WBC: 16.7 ± 6.4 ×10^9 · L^−1
[1]; Male, 450 mg/kg, d26
  APTT: 20.0 ± 3.3 s
  Fbg: 4.1 ± 0.6 g/L
  LYMPH: 26.5 ± 12.0 %
  NEUT: 68.6 ± 12.3 %
  WBC: 18.6 ± 5.9 ×10^9 · L^−1
[1]; Male, 450 mg/kg, d 56
  APTT: 19.9 ± 0.3 s
  Fbg: 1.8 ± 0.0 g/L
  LYMPH: 59.8 ± 22.8%
  NEUT: 36.7 ± 23.2%
  WBC: 14.6 ± 0.8 ×10^9 · L^−1
[1]; [3]
  LYMPH %: decreased
  NEUT %: Increased
[1]; high-dose females
  APTT: increases
[1]; mid- and high-dose animals
  Fbg: increases
[2]; 20, 100, 450 mg/kg/day for 4 weeks
  clinical signs of toxicity related to treatment in other animals: no apparent clinical signs of toxicity
[2]; high dose (450 mg/kg/day) females, controls 3.2±0.2
  body weight gain: 2.7±0.4
[2]; high dose (450 mg/kg/day) males, controls 4.6±0.5
  body weight gain: 4.1±0.5
[2]; high dose (450 mg/kg/day), nasogastric, day23
  mortality: Treatment related early death occurred in one high dose female
